Measurements: patent US6706739B2, “Imidazolidinone compounds” (National Health Research Institute, priority 2001, dated 2004)
Where two headings read alike, the source gives them in different places.

Assays:
Assay type in all cases: cell-based
coxsackievirus A24 = test: Plaque reduction assay, coxsackievirus A24
enterovirus 71 = test: Plaque reduction assay, enterovirus 71
coxsackievirus A9 = test: Plaque reduction assay, coxsackievirus A9
[1] = plaque reduction assay, vero cells, 35° C., 96 hours

O=C1N(CCCCCCOc2ccc(C(F)(F)F)cc2)CCN1c1ccncc1 [Compound 1, 1-(4-pyridyl)-3-(6-[4-(trifluoromethyl)phenoxy]hexyl)-2-imidazolidinone]
showed antiviral activity: antiviral activity against enteroviruses, in particular coxsackievirus A24 (coxsackievirus A24; [1]) | antiviral activity against enteroviruses, in particular enterovirus 71 (enterovirus 71; [1]) | antiviral activity against enteroviruses, in particular coxsackievirus A9 (coxsackievirus A9; [1])

O=C1N(CCCCCCCOc2ccc(Cl)cc2)CCN1c1ccncc1 [Compound 2, 1-[7-(4-chlorophenoxy)heptyl]-3-(4-pyridyl)-2-imidazolidinone]
showed antiviral activity: antiviral activity against enteroviruses, in particular coxsackievirus A24 (coxsackievirus A24; [1]) | antiviral activity against enteroviruses, in particular enterovirus 71 (enterovirus 71; [1]) | antiviral activity against enteroviruses, in particular coxsackievirus A9 (coxsackievirus A9; [1])

O=C1N(CCCCCCOc2ccc(Br)cc2)CCN1c1ccncc1 [Compound 17, 1-[6-(4-bromophenoxy)hexyl]-3-(4-pyridyl)-2-imidazolidinone]
showed antiviral activity: antiviral activity against enteroviruses, in particular coxsackievirus A24 (coxsackievirus A24; [1]) | antiviral activity against enteroviruses, in particular enterovirus 71 (enterovirus 71; [1]) | antiviral activity against enteroviruses, in particular coxsackievirus A9 (coxsackievirus A9; [1])

CC1CN(CCCCCCOc2ccc(Cl)cc2)C(=O)N1c1ccncc1 (stereo not drawn) [Compound 21, 1-[6-(4-chlorophenoxy)hexyl]-4-methyl-3-(4-pyridyl)-2-imidazolidinone]
showed antiviral activity: antiviral activity against enteroviruses, in particular coxsackievirus A24 (coxsackievirus A24; [1]) | antiviral activity against enteroviruses, in particular enterovirus 71 (enterovirus 71; [1]) | antiviral activity against enteroviruses, in particular coxsackievirus A9 (coxsackievirus A9; [1])

O=C1N(CCCCCCOc2ccc(Cl)cc2)CCN1c1ccncc1 [Compound 24, 1-[6-(4-chlorophenoxy)hexyl]-3-(4-pyridyl)-2-imidazolidinone]
showed antiviral activity: antiviral activity against enteroviruses, in particular coxsackievirus A24 (coxsackievirus A24; [1]) | antiviral activity against enteroviruses, in particular enterovirus 71 (enterovirus 71; [1]) | antiviral activity against enteroviruses, in particular coxsackievirus A9 (coxsackievirus A9; [1])

O=C1N(CCCCCOc2ccc(Cl)cc2)CCN1c1ccncc1 [Compound 28, 1-[5-(4-chlorophenoxy)pentyl]-3-(4-pyridyl)-2-imidazolidinone]
showed antiviral activity: antiviral activity against enteroviruses, in particular coxsackievirus A24 (coxsackievirus A24; [1]) | antiviral activity against enteroviruses, in particular enterovirus 71 (enterovirus 71; [1]) | antiviral activity against enteroviruses, in particular coxsackievirus A9 (coxsackievirus A9; [1])

O=C1N(CCCCCCOc2ccc(Br)cc2)CCN1c1cccnc1 [Compound 33, 1-[6-(4-bromophenoxy)hexyl]-3-(3-pyridyl)-2-imidazolidinone]
showed antiviral activity: antiviral activity against enteroviruses, in particular coxsackievirus A24 (coxsackievirus A24; [1]) | antiviral activity against enteroviruses, in particular enterovirus 71 (enterovirus 71; [1]) | antiviral activity against enteroviruses, in particular coxsackievirus A9 (coxsackievirus A9; [1])

O=C1N(CCCCOCCOc2ccc(Br)cc2)CCN1c1ccncc1 [Compound 34, 1-4-[2-(4-bromophenoxy)ethoxy]butyl-3-(4-pyridyl)-2-imidazolidinone]
showed antiviral activity: antiviral activity against enteroviruses, in particular coxsackievirus A24 (coxsackievirus A24; [1]) | antiviral activity against enteroviruses, in particular enterovirus 71 (enterovirus 71; [1]) | antiviral activity against enteroviruses, in particular coxsackievirus A9 (coxsackievirus A9; [1])

O=C1N(CCCCCCCOc2ccc(Cl)cc2)CCN1c1cccnc1 [Compound 39, 1-[7-(4-chlorophenoxy)heptyl]-3-(3-pyridyl)-2-imidazolidinone]
showed antiviral activity: antiviral activity against enteroviruses, in particular coxsackievirus A24 (coxsackievirus A24; [1]) | antiviral activity against enteroviruses, in particular enterovirus 71 (enterovirus 71; [1]) | antiviral activity against enteroviruses, in particular coxsackievirus A9 (coxsackievirus A9; [1])

O=C1N(CCCCCCOc2ccc(C(F)(F)F)cc2)CCN1c1cccnc1 [Compound 42, 1-(3-pyridyl)-3-(6-[4-(trifluoromethyl)phenoxy]hexyl)-2-imidazolidinone]
showed antiviral activity: antiviral activity against enteroviruses, in particular coxsackievirus A24 (coxsackievirus A24; [1]) | antiviral activity against enteroviruses, in particular enterovirus 71 (enterovirus 71; [1]) | antiviral activity against enteroviruses, in particular coxsackievirus A9 (coxsackievirus A9; [1])

O=C1N(CCCCCOCCOc2ccc(Br)cc2)CCN1c1ccncc1 [Compound 47, 1-(5-[2-(4-bromophenoxy)ethoxy]pentyl)-3-(4-pyridyl)-2-imidazolidinone]
showed antiviral activity: antiviral activity against enteroviruses, in particular coxsackievirus A24 (coxsackievirus A24; [1]) | antiviral activity against enteroviruses, in particular enterovirus 71 (enterovirus 71; [1]) | antiviral activity against enteroviruses, in particular coxsackievirus A9 (coxsackievirus A9; [1])

O=C1N(CCCCCCCOc2ccc(Br)cc2)CCN1c1ccncc1 [Compound 50, 1-[7-(4-bromophenoxy)heptyl]-3-(4-pyridyl)-2-imidazolidinone]
showed antiviral activity: antiviral activity against enteroviruses, in particular coxsackievirus A24 (coxsackievirus A24; [1]) | antiviral activity against enteroviruses, in particular enterovirus 71 (enterovirus 71; [1]) | antiviral activity against enteroviruses, in particular coxsackievirus A9 (coxsackievirus A9; [1])

O=C1N(CCCCCOc2ccc(Br)cc2)CCN1c1ccncc1 [Compound 52, 1-[5-(4-bromophenoxy)pentyl]-3-(4-pyridyl)-2-imidazolidinone]
showed antiviral activity: antiviral activity against enteroviruses, in particular coxsackievirus A24 (coxsackievirus A24; [1]) | antiviral activity against enteroviruses, in particular enterovirus 71 (enterovirus 71; [1]) | antiviral activity against enteroviruses, in particular coxsackievirus A9 (coxsackievirus A9; [1])

O=C1N(CCCCCCOc2ccc(I)cc2)CCN1c1ccncc1 [Compound 61, 1-[6-(4-iodophenoxy)hexyl]-3-(4-pyridyl)-2-imidazolidinone]
showed antiviral activity: antiviral activity against enteroviruses, in particular coxsackievirus A24 (coxsackievirus A24; [1]) | antiviral activity against enteroviruses, in particular enterovirus 71 (enterovirus 71; [1]) | antiviral activity against enteroviruses, in particular coxsackievirus A9 (coxsackievirus A9; [1])

O=C1N(CCCCCOc2ccc(-c3ccc(Cl)cc3)cc2)CCN1c1ccncc1 [Compound 73, 1-[6-(4-(4′-chloro)biphenyl-4-yloxy)pentyl]-3-pyridin-4-yl-imidazolidin-2-one]
showed antiviral activity: antiviral activity against enteroviruses, in particular coxsackievirus A24 (coxsackievirus A24) | antiviral activity against enteroviruses, in particular enterovirus 71 (enterovirus 71) | antiviral activity against enteroviruses, in particular coxsackievirus A9 (coxsackievirus A9)

COc1ccc(-c2ccc(OCCCCCN3CCN(c4ccncc4)C3=O)cc2)cc1 [Compound 74, 1-[5-(4′-methoxy-biphenyl-4-yloxy)pentyl]-3-pyridin-4-yl-imidazolidin-2-one]
showed antiviral activity: antiviral activity against enteroviruses, in particular coxsackievirus A24 (coxsackievirus A24; [1]) | antiviral activity against enteroviruses, in particular enterovirus 71 (enterovirus 71; [1]) | antiviral activity against enteroviruses, in particular coxsackievirus A9 (coxsackievirus A9; [1])

O=C1N(CCCCCOc2ccc(-c3ccc([N+](=O)[O-])cc3)cc2)CCN1c1ccncc1 [Compound 76, 1-[5-(4′-nitro-biphenyl-4-yloxy)pentyl]-3-pyridin-4-yl-imidazolidin-2-one]
showed antiviral activity: antiviral activity against enteroviruses, in particular coxsackievirus A24 (coxsackievirus A24; [1]) | antiviral activity against enteroviruses, in particular enterovirus 71 (enterovirus 71; [1]) | antiviral activity against enteroviruses, in particular coxsackievirus A9 (coxsackievirus A9; [1])
